Patent US20220098251A1, “PEPTIDE TAGS FOR LIGAND INDUCED DEGRADATION OF FUSION PROTEINS” (DANA-FARBER CANCER INSTITUTE, INC., priority 2018, published 2022)
Changes are numbered by the printed parent chain. In names and notes the source's numbering stands.

Experiments:
eGFP-IKZF1Δ fusion = biological target: T1, eGFP-IKZF1Δ fusion (Homo sapiens, UniProt Q13422); assay: Cellular degradation assay of eGFP-IKZF1Δ reporter by flow cytometry; format: cell-based; conditions: Flip-In 293 cells, 5 h, eGFP/mCherry
T1 construct: eGFP (followed by P2A); expressed in transfected cells
T1 sequence (Q96SW2 whole entry partner, one chain of several, the tested form may be a part): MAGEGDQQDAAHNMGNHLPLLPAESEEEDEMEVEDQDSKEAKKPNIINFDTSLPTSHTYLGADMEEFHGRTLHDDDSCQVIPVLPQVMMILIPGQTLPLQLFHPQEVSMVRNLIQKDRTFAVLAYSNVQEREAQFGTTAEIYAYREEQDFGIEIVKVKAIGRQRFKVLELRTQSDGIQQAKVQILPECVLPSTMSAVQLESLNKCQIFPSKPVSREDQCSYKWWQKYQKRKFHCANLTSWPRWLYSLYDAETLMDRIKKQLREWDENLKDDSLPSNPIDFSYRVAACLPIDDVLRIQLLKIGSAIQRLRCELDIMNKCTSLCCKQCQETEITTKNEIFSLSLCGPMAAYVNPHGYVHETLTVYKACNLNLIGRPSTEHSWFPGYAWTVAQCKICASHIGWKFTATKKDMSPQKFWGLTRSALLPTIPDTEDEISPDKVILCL
T1 sequence (Q16531 whole entry partner, one chain of several, the tested form may be a part): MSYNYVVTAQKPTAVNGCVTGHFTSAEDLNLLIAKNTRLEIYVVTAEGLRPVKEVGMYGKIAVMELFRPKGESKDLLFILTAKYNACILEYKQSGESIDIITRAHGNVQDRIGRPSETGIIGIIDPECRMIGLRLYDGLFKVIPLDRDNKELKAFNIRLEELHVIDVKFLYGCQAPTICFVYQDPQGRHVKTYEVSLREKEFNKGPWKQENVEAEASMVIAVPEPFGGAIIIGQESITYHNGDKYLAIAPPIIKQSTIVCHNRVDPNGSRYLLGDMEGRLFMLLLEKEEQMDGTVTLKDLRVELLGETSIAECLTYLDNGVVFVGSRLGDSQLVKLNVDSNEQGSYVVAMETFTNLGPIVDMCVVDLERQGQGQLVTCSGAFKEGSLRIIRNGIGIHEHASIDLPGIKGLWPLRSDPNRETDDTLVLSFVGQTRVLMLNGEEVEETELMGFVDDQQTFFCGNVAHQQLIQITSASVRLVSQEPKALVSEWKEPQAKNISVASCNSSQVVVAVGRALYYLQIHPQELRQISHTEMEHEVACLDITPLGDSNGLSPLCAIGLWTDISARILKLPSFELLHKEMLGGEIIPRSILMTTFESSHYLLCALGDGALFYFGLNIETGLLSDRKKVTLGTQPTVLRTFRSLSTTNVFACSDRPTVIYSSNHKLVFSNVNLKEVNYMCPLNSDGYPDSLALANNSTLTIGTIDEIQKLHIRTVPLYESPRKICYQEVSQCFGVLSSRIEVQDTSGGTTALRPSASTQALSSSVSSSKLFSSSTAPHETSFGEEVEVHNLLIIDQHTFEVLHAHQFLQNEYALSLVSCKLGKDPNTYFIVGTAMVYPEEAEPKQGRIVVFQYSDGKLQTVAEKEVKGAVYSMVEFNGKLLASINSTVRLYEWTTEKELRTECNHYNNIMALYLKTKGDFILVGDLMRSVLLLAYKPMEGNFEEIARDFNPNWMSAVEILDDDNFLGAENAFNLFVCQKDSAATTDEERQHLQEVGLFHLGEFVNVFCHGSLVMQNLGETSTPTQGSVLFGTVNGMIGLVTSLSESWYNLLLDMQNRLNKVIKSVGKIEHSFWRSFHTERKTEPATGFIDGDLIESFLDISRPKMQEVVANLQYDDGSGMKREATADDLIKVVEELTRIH
Method: Following 2-3 passage cycle FACS (FACSAria™ II, BD) was used to enrich for cells expressing eGFP and mCherry.
Signal from at least 3,000 events per well was acquired, and the eGFP and mCherry florescence monitored. Data were analyzed using FlowJo™ (FlowJo™, LCC). […] The eGFP protein abundance relative to mCherry was then quantified as a ten-fold amplified ratio for each individual cell using the formula: 10×eGFP/mCherry. The median of the ratio was then calculated per set, normalized to the median of the DMSO ratio.
Quantitative assessment of cellular degradation of a IKZF1-EGFP reporter using flow cytometry analysis. Cells stably expressing IKZF1Δ-EGFP and mCherry were treated with increasing concentrations of the indicated molecules and the EGFP and mCherry signals followed using flow cytometry analysis. Data in this figure are presented as means±s.d. from four cell culture replicates (n=4).

[1] = test system: Jurkat cells expressing individual ZFs in the Cilantro 2 protein degradation reporter; assay: Drug dependent degradation of ZFs in Cilantro 2 protein degradation reporter lentivector; format: cell-based; conditions: Cilantro 2, Jurkat cells
Source text: Next-generation sequencing of sorted cell populations encoding the ZF library was based on GFP expression. […] The experimental procedure was as described in Example 16.

[2] = test system: Kelly cells transiently transfected with Flag-hsSALL4; assay: Western blot of Flag-hsSALL4 levels in Kelly cells treated with thalidomide; format: cell-based; conditions: 24 hours
Method: Kelly cells were transiently transfected with hsSALL4^G416A or Flag-hsSALL4^G416N were treated with increasing concentrations of thalidomide or DMSO as a control. Following 24 hours of incubation, SALL4 (α-Flag) and GAPDH protein levels were assessed by western blot analysis (FIG. 4A). (See, Example 7 for western blot method.)
Kelly cells transiently transfected with Flag-hsSALL4WT, Flag-hsSALL4G600A, or hsSALL4G600N were treated with increasing concentrations of thalidomide or DMSO as a control. Following 24 h of incubation, SALL4 (α-Flag) and GAPDH protein levels were assessed by western blot analysis (one representative experiment is shown out of three replicates).
Cells were treated with compounds as indicated and incubated for 24 hours, or as indicated. Samples were run on 4-20% or Any kD™ SDS-PAGE Gels (Bio-rad), and transferred to polyvinylidene fluoride (PVDF) membranes using the iBlot® 2.0 dry blotting system (Thermo Fisher Scientific). Membranes were blocked with LI-COR® blocking solution (LI-COR®), and incubated with primary antibodies overnight, followed by three washes in LI-COR® blocking solution and incubation with secondary antibodies for one hour in the dark. After three final washes, the membranes were imaged on a LI-COR® fluorescent imaging station.

DDB1ΔB-CRBN [3] = assay: TR-FRET of SALL4 degron binding to CRBN; design: species or system human; conditions: for IMiD induced CRBN binding: purified proteins, SALL4 point mutants; for IMiD-dependent dimerization / binding affinity to CRBN: SALL4 degron tags, biochemical assays
Method: Compounds in binding assays were dispensed into a 384-well microplate (Corning, 4514) using the D300e Digital Dispenser (HP) normalized to 1% DMSO and containing 100 nM biotinylated Strep-Avi-SALL4 (WT or mutant, see, FIG. 3A-FIG. 3K), 1 μM His6-DDB1ΔB-His6-CRBNBODIPY-Spycatcher and 4 nM terbium-coupled streptavidin (Invitrogen) in a buffer containing 50 mM Tris pH 7.5, 100 mM NaCl, 1 mM TCEP, 0.1% Pluronic F-68 solution (Sigma). Before TR-FRET measurements were conducted, the reactions were incubated for 15 minutes at room temperature (RT). After excitation of terbium fluorescence at 337 nm, emission at 490 nm (terbium) and 520 nm (boron-dipyrromethene (BODIPY)) were recorded with a 70 μs delay over 600 μs to reduce background fluorescence and the reaction was followed over 30×200 second cycles of each data point using a PHERAstar® FS microplate reader (BMG Labtech). The TR-FRET signal of each data point was extracted by calculating the 520/490 nm ratios. Data from three independent measurements (n=3), each calculated as an average of 5 technical replicates per well per experiment, was plotted and the half maximal effective concentrations EC50 values calculated using variable slope equation in GraphPad Prism 7. […] The resulting data were fitted as described previously. (Petzold et al., Nature 532:127-130 (2016)).

DDB1ΔB-CRBN [4] = biological target: T2, DDB1ΔB-CRBN (Homo sapiens, UniProt Q96SW2); assay: IKZF1Δ TR-FRET dimerization assay; format: binding; conditions: titration of IMiDs
T2 construct: 3C protease site (N); made in house; host or cells: Trichoplusia ni High Five insect cells (baculovirus)
T2 sequence (Q96SW2 whole entry, stated change not applied): as the sequence (Q96SW2 whole entry partner, one chain of several, the tested form may be a part) above
Method: Compounds in dimerization assays were dispensed in a 384-well microplate (Corning, 4514) using D300e Digital Dispenser (HP) normalized to 2% DMSO into 80 nM biotinylated StrepII-avi-IKZF1Δ (See, Figure legends), 100 nM His6-DDB1ΔB-His6-CRBNBODIPY-Spycatcher and 2 nM terbium-coupled streptavidin (Invitrogen™) in a buffer containing 50 mM Tris pH 7.5, 200 mM NaCl, 0.1% Pluronic F-68 solution (Sigma) and 2% DMSO (4% DMSO final). Before TR-FRET measurements were conducted, the reactions were incubated for 15 min at RT. After excitation of terbium fluorescence at 337 nm, emission at 490 nm (terbium) and 520 nm (BODIPY) were recorded with a […] to reduce background fluorescence and the reaction was followed over 30 200 second cycles of each data point using a PHERAstar® FS microplate reader (BMG Labtech). The TR-FRET signal of each data point was extracted by calculating the 520/490 nm ratio. The 520/490 nm ratios in IKZF1Δ TR-FRET assays were plotted to calculate or IC50 (for compound titrations) using GraphPad Prism 7 variable slope equation. The standard deviation in IKZF1Δ TR-FRET compound titrations was calculated from three independent replicates (n=3), or as an average of 5 technical replicates of single experiment for unlabeled protein titrations.
Titration of the indicated molecules to DDB1ΔB-CRBNSPYCATCHER-BODIPY, Terbium-streptavidin and IKZF1Δbiotin. […]

Nc1cccc2c1CN(C1CCC(=O)NC1=O)C2=O (stereo not drawn) [lenalidomide]
degradation of eGFP-IKZF1Δ fusion (eGFP-IKZF1Δ fusion): potent degradation

Nc1cccc2c1C(=O)N(C1CCC(=O)NC1=O)C2=O (stereo not drawn) [pomalidomide]
degradation of eGFP-IKZF1Δ fusion (eGFP-IKZF1Δ fusion): potent degradation

O=C1CCC(N2C(=O)c3ccccc3C2=O)C(=O)N1 (stereo not drawn) [thalidomide]
degradation of eGFP-IKZF1Δ fusion (eGFP-IKZF1Δ fusion): potent degradation

CC220-1: zinc finger degron FYCTQCGAAFDRWEELYNHLLNH (SEQ ID NO: 185)
degradation by iberdomide relative to control sequences [1]: more efficiently degraded by iberdomide (aka CC-220) than the indicated control sequences

CC220-2: zinc finger degron MQCEICGFTCRRAEELNTHLNKH (SEQ ID NO: 186)
degradation by iberdomide relative to control sequences [1]: more efficiently degraded by iberdomide (aka CC-220) than the indicated control sequences

CC220-3: zinc finger degron FYCKQCGANFSRWEELYNHLKAH (SEQ ID NO: 187)
degradation by iberdomide relative to control sequences [1]: more efficiently degraded by iberdomide (aka CC-220) than the indicated control sequences

G416A: SALL4 with G416A point mutation in ZnF2
protein degradation in cells [2]: disable degradation in cells | IMiD induced CRBN binding (DDB1ΔB-CRBN [3]): abrogated IMiD induced CRBN binding

Q595H: SALL4 ZnF4 with mutation of glutamine 595 residue
protein degradation in cells [2]: no effect at the ability of the protein product to be degraded | IMiD-dependent dimerization / binding affinity to CRBN (DDB1ΔB-CRBN [3]): reduced binding affinity

B1: G416N: SALL4 with G416N point mutation in ZnF2 (protein)
chain: ALYKHKCKYCSKVFGTDSSLQIHLRSHTGERPFVCSVCNHRFTTKGNLKVHFHRHPQVKAN
modifications: left off: small tags and cut ends
notes: SALL4 with G416N point mutation in ZnF2
protein degradation in cells [2]: disable degradation in cells | IMiD induced CRBN binding (DDB1ΔB-CRBN [3]): abrogated IMiD induced CRBN binding

B2: S388N: SALL4 ZnF1-2 with S388N mutation in ZnF1 (SEQ ID NO: 84) (protein)
chain: B1 chain with S11N, N39G
IMiD induced CRBN binding (DDB1ΔB-CRBN [3]): maintained IMiD induced CRBN binding

B3: SALL4 ZnF1-2: degron tag SEQ ID NO: 27 (protein)
chain: B1 chain with N39G
IMiD-dependent dimerization / binding affinity to CRBN (DDB1ΔB-CRBN [3]): sufficient to induce efficient dimerization

B4: IKZF1 (SEQ ID NO: 18): non-naturally occurring degron tag of SEQ ID NO: 18 (protein)
chain: RMLDASGEKMNGSHRDQGSSALSGVGGIRLPNGKLKCDICGIICIGPNVLMVHKRSHTGERPFQCNQCGASFTQKGNLLRHIKLHSGEKPFKCHLCNYACRRRDALTGHLRTHSVIKEETNHSEMAEDLCK
dimerization between CRBN-DDB1ΔB and IKZF1Δ (DDB1ΔB-CRBN [4]): Potent dimerization
